Experiments:
Test in all cases: Herbicidal effect by foliage and soil treatment
Assay type in all cases: in vivo
Conditions in all cases: 10 g ai/10a, evaluated after 14 days
[1] = test system: cleavers (Galium aparine)
Method in brief: (§1)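 Seedlings grown in granular soil in a 19–25 °C greenhouse to the cotyledon–two-leaf stage were sprayed over foliage and soil with compound in Tween 20/water at a set application rate. Growth was scored on a rating scale against untreated plants after 14 days.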

[2] = test system: ivyleafspeedwell (Veronica hederaefolia)
Method in brief: as §1

[3] = test system: common blackjack (Bidens pilosa)
Method in brief: as §1

[4] = test system: black nightshade (Solanum nigrum)
Method in brief: as §1

[5] = test system: sicklepod (Cassia obtusifolia)
Method in brief: as §1

[6] = test system: redroot pigweed (Amaranthus retroflexus)
Method in brief: as §1

[7] = test system: common chickweed (Stellaria media)
Method in brief: as §1

[8] = test system: kediock (Sinapis arvensis)
Method in brief: as §1

[9] = test system: wild chamomile (Matricaria chamomilla)
Method in brief: as §1

[10] = test system: field bindweed (Convolvulus arvensis)
Method in brief: as §1

[11] = test system: velvetleaf (Abutilon theophrasti)
Method in brief: as §1

Row | Structure (SMILES) | herbicidal activity rating, GA (Galium aparine) [1] | herbicidal activity rating, VH (Veronica hederaefolia) [2] | herbicidal activity rating, BP (Bidens pilosa) [3] | herbicidal activity rating, SN (Solanum nigrum) [4] | herbicidal activity rating, CO (Cassia obtusifolia) [5] | herbicidal activity rating, AR (Amaranthus retroflexus) [6] | herbicidal activity rating, SM (Stellaria media) [7] | herbicidal activity rating, SA (Sinapis arvensis) [8] | herbicidal activity rating, MC (Matricaria chamomilla) [9] | herbicidal activity rating, CA (Convolvulus arvensis) [10] | herbicidal activity rating, AT (Abutilon theophrasti) [11]
1 | COc1cc(Oc2cccc(C(F)(F)F)c2)nc(C(=O)NCCOCCF)c1 [Compound I-90] | 5 (percentage of weeds killed was not less than 80%) | 5 (percentage of weeds killed was not less than 80%) | 5 (percentage of weeds killed was not less than 80%) | 5 (percentage of weeds killed was not less than 80%) | 5 (percentage of weeds killed was not less than 80%) | 5 (percentage of weeds killed was not less than 80%) | 5 (percentage of weeds killed was not less than 80%) | 5 (percentage of weeds killed was not less than 80%) | 2 (percentage of weeds killed was not less than 20% and less than 40%) | 4 (percentage of weeds killed was not less than 60% and less than 80%) | 3 (percentage of weeds killed was not less than 40% and less than 60%)
2 | COc1cc(Oc2cccc(C(F)(F)F)c2)nc(C(=O)Nc2ccc(Cl)cc2)c1 [Compound I-2] | 5 (percentage of weeds killed was not less than 80%) | 5 (percentage of weeds killed was not less than 80%) | 5 (percentage of weeds killed was not less than 80%) | 5 (percentage of weeds killed was not less than 80%) | 5 (percentage of weeds killed was not less than 80%) | 5 (percentage of weeds killed was not less than 80%) | 4 (percentage of weeds killed was not less than 60% and less than 80%) | 5 (percentage of weeds killed was not less than 80%) | 3 (percentage of weeds killed was not less than 40% and less than 60%) | 5 (percentage of weeds killed was not less than 80%) | 4 (percentage of weeds killed was not less than 60% and less than 80%)
3 | CCC(=O)CNC(=O)c1cc(OC)cc(Oc2cccc(C(F)(F)F)c2)n1 [Compound I-86, N-(2-oxobutyl)-4-methoxy-6-{3-(trifluoromethyl)phenoxy}-2-pyridine carboxamide] | 5 (percentage of weeds killed was not less than 80%) | 5 (percentage of weeds killed was not less than 80%) | 4 (percentage of weeds killed was not less than 60% and less than 80%) | 5 (percentage of weeds killed was not less than 80%) | 4 (percentage of weeds killed was not less than 60% and less than 80%) | 5 (percentage of weeds killed was not less than 80%) | 5 (percentage of weeds killed was not less than 80%) | 5 (percentage of weeds killed was not less than 80%) | 4 (percentage of weeds killed was not less than 60% and less than 80%) | 3 (percentage of weeds killed was not less than 40% and less than 60%) | 5 (percentage of weeds killed was not less than 80%)
4 | COc1cc(Oc2cccc(C(F)(F)F)c2)nc(C(=O)NCC(F)(F)F)c1 [Compound I-82] | 5 (percentage of weeds killed was not less than 80%) | 5 (percentage of weeds killed was not less than 80%) | 4 (percentage of weeds killed was not less than 60% and less than 80%) | 5 (percentage of weeds killed was not less than 80%) | 5 (percentage of weeds killed was not less than 80%) | 5 (percentage of weeds killed was not less than 80%) | 5 (percentage of weeds killed was not less than 80%) | 5 (percentage of weeds killed was not less than 80%) | 5 (percentage of weeds killed was not less than 80%) | 5 (percentage of weeds killed was not less than 80%) | 5 (percentage of weeds killed was not less than 80%)
5 | CCN(CC)C(=O)c1cc(OC)cc(Oc2cccc(C(F)(F)F)c2)n1 [Compound I-200, N,N-diethyl-4-methoxy-6-{3-(trifluoromethyl)phenoxy}-2-pyridine carboxamide] | 5 (percentage of weeds killed was not less than 80%) | 5 (percentage of weeds killed was not less than 80%) | 2 (percentage of weeds killed was not less than 20% and less than 40%) | 5 (percentage of weeds killed was not less than 80%) | 5 (percentage of weeds killed was not less than 80%) | 5 (percentage of weeds killed was not less than 80%) | 5 (percentage of weeds killed was not less than 80%) | 5 (percentage of weeds killed was not less than 80%) | 4 (percentage of weeds killed was not less than 60% and less than 80%) | 5 (percentage of weeds killed was not less than 80%) | 5 (percentage of weeds killed was not less than 80%)
6 | COc1cc(Oc2cccc(C(F)(F)F)c2)nc(C(=O)NCCCCl)c1 [Compound I-79] | 5 (percentage of weeds killed was not less than 80%) | 5 (percentage of weeds killed was not less than 80%) | 5 (percentage of weeds killed was not less than 80%) | 5 (percentage of weeds killed was not less than 80%) | 5 (percentage of weeds killed was not less than 80%) | 5 (percentage of weeds killed was not less than 80%) | 5 (percentage of weeds killed was not less than 80%) | 5 (percentage of weeds killed was not less than 80%) | 5 (percentage of weeds killed was not less than 80%) | 4 (percentage of weeds killed was not less than 60% and less than 80%) | 5 (percentage of weeds killed was not less than 80%)

Reference: patent publication US6339045B1, “N-(unsubstituted or substituted)-4-substituted-6-(unsubstituted or substituted)phenoxy-2-pyridinecarboxamides or thiocarboxamides, processes for producing the same, and herbicides” (Kureha Kagaku Kogyo Kabushiki Kaisha, priority 1995, dated 2002)
